Values joined by “and” are separate entries in the source; they are usually repeats but may differ in a detail not shown here. Equal entries are not always repeated.
Conditions: Fluid (supercritical or subcritical phases), Coaxial cylinder method

FCC(F)(F)F [1,1,1,2-tetrafluoroethane]
Conditions | thermal conductivity
375.76 K, 4223 kPa | 0.0752 W/m/K
375.77 K, 4161 kPa | 0.0731 W/m/K
375.79 K, 4241 kPa | 0.0673 W/m/K
375.8 K, 3504 kPa | 0.029 W/m/K
375.8 K, 4150 kPa | 0.0656 W/m/K
375.81 K, 3534 kPa | 0.0279 W/m/K
375.82 K, 4254 kPa | 0.0627 W/m/K
375.83 K, 4141 kPa | 0.06 W/m/K
375.84 K, 4279 kPa | 0.0589 W/m/K
375.85 K, 4296 kPa | 0.0573 W/m/K
375.86 K, 4316 kPa | 0.0558 W/m/K
375.86 K, 4334 kPa | 0.0551 W/m/K
375.87 K, 3165 kPa | 0.0261 W/m/K
375.87 K, 3264 kPa | 0.0264 W/m/K
375.87 K, 4132 kPa | 0.0548 W/m/K
375.87 K, 4349 kPa | 0.0546 W/m/K
375.87 K, 4363 kPa | 0.0539 W/m/K
375.88 K, 4387 kPa | 0.0535 W/m/K
375.88 K, 4432 kPa | 0.0526 W/m/K
375.88 K, 4461 kPa | 0.0526 W/m/K and 0.0524 W/m/K
375.89 K, 4451 kPa | 0.0521 W/m/K
375.89 K, 4630 kPa | 0.052 W/m/K
375.9 K, 2970 kPa | 0.0251 W/m/K
375.92 K, 4120 kPa | 0.0485 W/m/K
375.93 K, 2700 kPa | 0.0265 W/m/K
375.94 K, 2662 kPa | 0.024 W/m/K
375.95 K, 2429 kPa | 0.0235 W/m/K
375.95 K, 3993 kPa | 0.0374 W/m/K
375.99 K, 3936 kPa | 0.0349 W/m/K
375.99 K, 4072 kPa | 0.0417 W/m/K
376.01 K, 3908 kPa | 0.034 W/m/K
376.02 K, 4205 kPa | 0.0817 W/m/K
376.02 K, 4207 kPa | 0.0822 W/m/K
376.02 K, 4209 kPa | 0.0826 W/m/K
376.02 K, 4213 kPa | 0.0826 W/m/K
376.02 K, 4217 kPa | 0.0821 W/m/K
376.03 K, 4203 kPa | 0.0807 W/m/K
376.03 K, 4222 kPa | 0.0806 W/m/K
376.03 K, 4225 kPa | 0.0797 W/m/K
376.04 K, 1048 kPa | 0.0214 W/m/K
376.04 K, 4039 kPa | 0.0379 W/m/K
376.04 K, 4200 kPa | 0.0784 W/m/K
376.04 K, 4230 kPa | 0.0774 W/m/K
376.04 K, 4233 kPa | 0.0766 W/m/K
376.05 K, 773 kPa | 0.0212 W/m/K
376.05 K, 4198 kPa | 0.0754 W/m/K
376.06 K, 524 kPa | 0.0208 W/m/K
376.06 K, 4011 kPa | 0.0362 W/m/K
376.06 K, 4242 kPa | 0.0737 W/m/K
376.07 K, 200 kPa | 0.0205 W/m/K
376.07 K, 4190 kPa | 0.0693 W/m/K
376.07 K, 4250 kPa | 0.0708 W/m/K
376.08 K, 3975 kPa | 0.0352 W/m/K
376.08 K, 4260 kPa | 0.0686 W/m/K
376.09 K, 4270 kPa | 0.0669 W/m/K
376.09 K, 4280 kPa | 0.0656 W/m/K
376.1 K, 3941 kPa | 0.0342 W/m/K
376.1 K, 4180 kPa | 0.0622 W/m/K
376.1 K, 4300 kPa | 0.0638 W/m/K
376.11 K, 3913 kPa | 0.0333 W/m/K
376.11 K, 4320 kPa | 0.0624 W/m/K
376.14 K, 5520 kPa | 0.054 W/m/K
376.14 K, 5651 kPa | 0.0543 W/m/K
376.14 K, 5740 kPa | 0.0545 W/m/K
376.15 K, 4789 kPa | 0.0527 W/m/K
376.15 K, 5037 kPa | 0.0529 W/m/K
376.15 K, 5092 kPa | 0.0531 W/m/K
376.15 K, 5216 kPa | 0.0534 W/m/K
376.15 K, 5296 kPa | 0.0536 W/m/K
376.16 K, 4754 kPa | 0.0523 W/m/K
376.19 K, 4160 kPa | 0.0503 W/m/K
376.21 K, 3800 kPa | 0.0312 W/m/K
376.21 K, 4150 kPa | 0.048 W/m/K
376.23 K, 2350 kPa | 0.0256 W/m/K
376.23 K, 3734 kPa | 0.0301 W/m/K
376.26 K, 4264 kPa | 0.081 W/m/K
376.26 K, 4360 kPa | 0.0608 W/m/K
376.26 K, 4390 kPa | 0.06 W/m/K
376.27 K, 4230 kPa | 0.0811 W/m/K
376.28 K, 4218 kPa | 0.0789 W/m/K
376.28 K, 4267 kPa | 0.0803 W/m/K
376.29 K, 4214 kPa | 0.078 W/m/K
376.29 K, 4279 kPa | 0.0786 W/m/K
376.31 K, 4210 kPa | 0.077 W/m/K
376.33 K, 3030 kPa | 0.0242 W/m/K
376.34 K, 4199 kPa | 0.074 W/m/K
376.34 K, 4305 kPa | 0.0746 W/m/K
376.38 K, 2200 kPa | 0.0252 W/m/K
376.38 K, 4192 kPa | 0.0712 W/m/K
376.4 K, 3872 kPa | 0.0323 W/m/K
376.41 K, 3872 kPa | 0.0317 W/m/K
376.41 K, 4184 kPa | 0.0684 W/m/K
376.42 K, 3872 kPa | 0.0315 W/m/K
376.44 K, 3783 kPa | 0.0303 W/m/K
376.44 K, 4178 kPa | 0.0661 W/m/K
376.44 K, 4354 kPa | 0.0663 W/m/K
376.46 K, 3783 kPa | 0.0297 W/m/K
376.48 K, 3675 kPa | 0.0288 W/m/K
376.48 K, 4174 kPa | 0.0639 W/m/K
376.5 K, 3593 kPa | 0.0281 W/m/K
376.51 K, 2527 kPa | 0.0229 W/m/K
376.51 K, 3504 kPa | 0.0275 W/m/K
376.51 K, 4168 kPa | 0.0618 W/m/K
376.52 K, 4404 kPa | 0.0612 W/m/K
376.53 K, 3468 kPa | 0.0269 W/m/K
376.54 K, 4470 kPa | 0.059 W/m/K
376.54 K, 4580 kPa | 0.0586 W/m/K
376.55 K, 3302 kPa | 0.0263 W/m/K
376.55 K, 4165 kPa | 0.0598 W/m/K
376.56 K, 3210 kPa | 0.0257 W/m/K
376.57 K, 4451 kPa | 0.0587 W/m/K
376.58 K, 4158 kPa | 0.0579 W/m/K
376.59 K, 3210 kPa | 0.0248 W/m/K
376.6 K, 3210 kPa | 0.0246 W/m/K
376.61 K, 3210 kPa | 0.0244 W/m/K
376.61 K, 4150 kPa | 0.0562 W/m/K
376.65 K, 4147 kPa | 0.0545 W/m/K
376.68 K, 4141 kPa | 0.0524 W/m/K
376.68 K, 4680 kPa | 0.0583 W/m/K
376.69 K, 4140 kPa | 0.0427 W/m/K
376.73 K, 4100 kPa | 0.0395 W/m/K
376.78 K, 4040 kPa | 0.0364 W/m/K
376.81 K, 3990 kPa | 0.0346 W/m/K
376.82 K, 4117 kPa | 0.047 W/m/K
376.82 K, 4820 kPa | 0.0577 W/m/K
376.82 K, 4860 kPa | 0.0575 W/m/K
376.87 K, 3880 kPa | 0.0318 W/m/K
376.87 K, 4101 kPa | 0.0452 W/m/K
376.87 K, 4504 kPa | 0.0571 W/m/K
376.89 K, 4548 kPa | 0.0562 W/m/K
376.9 K, 3800 kPa | 0.0304 W/m/K
376.92 K, 3740 kPa | 0.0295 W/m/K
376.95 K, 3650 kPa | 0.0285 W/m/K
376.96 K, 2027 kPa | 0.0218 W/m/K
376.98 K, 3510 kPa | 0.0274 W/m/K
377.01 K, 4289 kPa | 0.072 W/m/K
377.01 K, 4294 kPa | 0.0724 W/m/K
377.01 K, 4307 kPa | 0.0724 W/m/K
377.01 K, 4309 kPa | 0.072 W/m/K
377.01 K, 4312 kPa | 0.0717 W/m/K
377.02 K, 4322 kPa | 0.0706 W/m/K
377.02 K, 4332 kPa | 0.0691 W/m/K
377.03 K, 4343 kPa | 0.0674 W/m/K
377.04 K, 4356 kPa | 0.0661 W/m/K
377.05 K, 4380 kPa | 0.0636 W/m/K
377.05 K, 4384 kPa | 0.0634 W/m/K
377.06 K, 4397 kPa | 0.0625 W/m/K
377.06 K, 4417 kPa | 0.0617 W/m/K
377.07 K, 4439 kPa | 0.0606 W/m/K
377.07 K, 4473 kPa | 0.06 W/m/K
377.08 K, 4495 kPa | 0.0595 W/m/K
377.08 K, 4538 kPa | 0.0587 W/m/K
377.17 K, 4275 kPa | 0.0671 W/m/K
377.18 K, 4270 kPa | 0.0648 W/m/K
377.19 K, 4266 kPa | 0.063 W/m/K
377.24 K, 4249 kPa | 0.0555 W/m/K
377.26 K, 4241 kPa | 0.0529 W/m/K
377.27 K, 4235 kPa | 0.0513 W/m/K
377.29 K, 4226 kPa | 0.0494 W/m/K
377.32 K, 4211 kPa | 0.0466 W/m/K
377.36 K, 4613 kPa | 0.0583 W/m/K
377.36 K, 4653 kPa | 0.0578 W/m/K
377.36 K, 4697 kPa | 0.0578 W/m/K
377.36 K, 4760 kPa | 0.0576 W/m/K
377.37 K, 4836 kPa | 0.0569 W/m/K
377.37 K, 4907 kPa | 0.0562 W/m/K
377.51 K, 4164 kPa | 0.0415 W/m/K
377.55 K, 4126 kPa | 0.039 W/m/K
377.58 K, 4079 kPa | 0.0366 W/m/K
377.73 K, 4701 kPa | 0.055 W/m/K
377.83 K, 4369 kPa | 0.0678 W/m/K
377.83 K, 4381 kPa | 0.0681 W/m/K
377.83 K, 4390 kPa | 0.0681 W/m/K
377.83 K, 4400 kPa | 0.0678 W/m/K
377.84 K, 4360 kPa | 0.0668 W/m/K
377.84 K, 4411 kPa | 0.0668 W/m/K
377.84 K, 4420 kPa | 0.0658 W/m/K
377.85 K, 4351 kPa | 0.0652 W/m/K
377.85 K, 4432 kPa | 0.0652 W/m/K
377.85 K, 4441 kPa | 0.064 W/m/K
377.86 K, 4451 kPa | 0.0631 W/m/K
377.86 K, 4460 kPa | 0.0623 W/m/K
377.86 K, 4997 kPa | 0.0548 W/m/K

— the NIST ThermoML archive (doi:10.1021/je900210h)
